Measured values: US11390884B2, “Optimized CRISPR/cas9 systems and methods for gene editing in stem cells” (Editas Medicine, Inc., priority 2015, dated 2022)
Read-outs that look alike come from different tables or passages of the source. Peptide text beside a SMILES is read from it. * marks the point of attachment. Cbz = O=C(OCc1ccccc1)*

Columns and labels:
HBB locus = assay: Gene editing at the HBB locus in cord blood CD34+ HSCs (T7E1, DNA sequencing); type: cell-based, human; settings: CB CD34+, enhancer 18 hours before and 3 days after electroporation with D10A Cas9 RNP, HBB-8/HBB-15, Phx ssODN, UM171 35 nM, UM171/SR-1 35/40 nM, rapamycin 5 nM, OxPAPC 30 μg/mL, bafilomycin A1 1 μM, MG132 0.5 μM
Source text: Human CD34^+ HSCs cells were isolated from freshly obtained human umbilical cord blood by ficoll gradient density centrifugation followed by MACS® (antibody conjugated immunomagnetic bead sorting) with mouse anti-human CD34^+ immunomagnetic beads using the human CD34 cell enrichment kit and LS magnetic columns from Miltenyi Biotech. […] In the afternoon of day 3, 2.5 million CD34^+ cells per sample were suspended in electroporation buffer.
In vitro transcribed capped and tailed guide gRNAs HBB-8 and HBB-15 were added at a 2:1 molar ratio (total gRNA:Cas9 protein) to 12.5 μg D10A nickase ribonucleoprotein (RNP) (5 μg RNP per million cells) to each of two samples each containing 2.5 million CB CD34^+ cells. A third CB CD34^+ cell aliquot was mixed with 25 μg D10A nickase RNP and HBB gRNAs (total gRNA:D10A ratio at 2:1).
For all samples, the cells were collected from the cartridge and placed at 37° C. for 20 minutes (recovery period). For the CB CD34^+ HSCs that were contacted with 12.5 μg D10A nickase RNP, one sample was transferred to pre-warmed cytokine supplemented Stemspan-SFEM™ media and placed at 30° C. for 2 hours (cold shock samples) or placed directly into the same media at 37° C. For the cold shocked samples, the cells were transferred to the 37° C. incubator after the 2-hour incubation period at 30° C. […] Genomic DNA was extracted from the HSCs at 48 and 72 hours after electroporation and HBB locus-specific PCR reactions were performed. The purified PCR products were analyzed for insertions/deletions (indels) in T7E1 assays and by DNA sequencing of individual clones (PCR product was transformed and subcloned into TOPO-vector, individual colonies picked, and plasmid DNA containing individual PCR products were sequenced).
Gene editing at the HBB locus was then evaluated at 72 hours after electroporation of D10A nickase RNP co-delivered with 2 gRNAs (HBB-8 and HBB-15). Briefly, gDNA was isolated from electroporated CD34^+ cells at 72 hours after electroporation, and PCR amplification of a ˜607 bp fragment of the HBB locus (which captures both of the individual genomic locations that were targeted by gRNAs HBB-8 and HBB-15) was performed. After cleanup of the HBB PCR product with AMPURE beads, insertions/deletions (indels) at the targeted genomic location were evaluated by T7E1 assay and by DNA sequencing.
Human CD34^+ HSCs cells were isolated from freshly obtained human umbilical cord blood by ficoll gradient density centrifugation followed by MACS sorting with mouse anti-human CD34^+ immunomagnetic beads. […] In the afternoon of day 3, 2.2 million CD34^+ cells per sample were suspended in electroporation buffer.
In vitro transcribed capped and tailed guide gRNAs HBB-8 and HBB-15 were added at a 2:1 molar ratio (total gRNA:Cas9 protein) to 10 μg RNP per million cells.
For all samples, the cells were collected from the cartridge and placed at 37° C. for 20 minutes (recovery period).

human CB CD34^+ HSCs [1] = test system: human CB CD34^+ HSCs
Description: (§1) For all samples, the cells were collected from the cartridge and placed at 37° C. for 20 minutes (recovery period). […] For the cold shocked samples, the cells were transferred to the 37° C. incubator after the 2-hour incubation period at 30° C.
(§2) For all samples, the cells were collected from the cartridge and placed at 37° C. for 20 minutes (recovery period). For the CB CD34^+ cells that were contacted with 10 μg D10A nickase RNP (per million cells), one sample was transferred to pre-warmed cytokine supplemented Stemspan-SFEM™ media and placed at 30° C. for 2 hours (cold shock recovery) or placed directly into the same media at 37° C. For the cold shocked samples, the cells were transferred to the 37° C. incubator after the 2-hour incubation period at 30° C.
(§3) CB CD34^+ cells were pre-treated with each of these stem cell viability enhancers (Table 19) for 18 hours prior to electroporation with D10A Cas9 RNP, HBB-8 and HBB-15 modified gRNAs, and 5′ and 3′ phosphorothioate-modified ssODN donor template. After electroporation, cells were replated into HSC medium containing these stem cell viability enhancers and cultured for an additional 3 days.

human CB CD34^+ HSCs [2] = assay: Flow cytometry viability and stem cell phenotype of electroporated cord blood CD34+ cells
Description: as §1, §2, §3

[3] = test system: human mobilized peripheral blood CD34^+ HSCs; settings: Nucleofection with wild type Cas9 and CCR5-U43 gRNA plasmid DNA; short-term 40 nM UM171
[4] = test system: human mobilized peripheral blood CD34^+ HSCs; assay: Hematopoietic colony forming cell (CFC) assay in Methocult; type: cell-based; settings: wild-type Cas9 and CCR5-U43 gRNA plasmid DNA; 40 nM UM171; two weeks
Source text: […]; 345(6203):1509-1512). […] […].
To evaluate maintenance of HSC potency and differentiation potential, two weeks after plating CD34^+ HSCs in CFC assays, hematopoietic activity was quantified based on scoring the HSC progeny by enumerating the total number of hematopoietic colony forming units (CFU) and the frequencies of specific blood cell phenotypes, including: mixed myeloid/erythroid (Granulocyte-erythroid-monocyte macrophage, CFU-GEMM), myeloid (CFU-macrophage (M), granulocyte-macrophage (CFU-GM)) and erythroid (CFU-E) colonies. […].
To evaluate maintenance of HSC potency and differentiation potential, two weeks after plating CD34^+ HSCs in CFC assays, hematopoietic activity was quantified based on scoring the HSC progeny by enumerating the total number of hematopoietic colony forming units (CFU) and the frequencies of specific blood cell phenotypes, including: mixed myeloid/erythroid (Granulocyte-erythroid-monocyte macrophage, CFU-GEMM), myeloid (CFU-macrophage (M), granulocyte-macrophage (CFU-GM)) and erythroid (CFU-E) colonies. […]. […] After Nucleofection™, cells were replated into Stemspan-SFEM supplemented with SCF, TPO, FL and UM171. After overnight incubation, HSCs were replated in Stemspan-SFEM™ plus cytokines alone without UM171.
To evaluate maintenance of HSC potency and differentiation potential, two weeks after plating CD34^+ HSCs in CFC assays, hematopoietic activity was quantified based on scoring the HSC progeny by enumerating the total number of hematopoietic colony forming units (CFU) and the frequencies of specific blood cell phenotypes, including: mixed myeloid/erythroid (Granulocyte-erythroid-monocyte macrophage, CFU-GEMM), myeloid (CFU-macrophage (M), granulocyte-macrophage (CFU-GM)) and erythroid (CFU-E) colonies. CD34^+ HSCs that were Nucleofected™ CD34^+ HSCs maintained CFC potential compared to un-Nucleofected™ HSCs (Table 14).

[5] = Homo sapiens, read-out: % Viability of CD34^+ stem cells

CO/C1=C\C(C)=C\[C@@H](C)[C@@H](O)[C@@H](C)C/C(C)=C/C=C/[C@H](OC)[C@@H]([C@@H](C)[C@@H](O)[C@H](C)[C@@]2(O)C[C@@H](O)[C@H](C)[C@@H](C(C)C)O2)OC1=O [Bafilomycin A1, reference compound]
% HDR (HBB locus): 0%
% NHEJ (HBB locus): 18%
% Total Gene Editing (HBB locus): 18%
% Viability of CD34^+ stem cells (human CB CD34^+ HSCs [1]): 23%

CC(C)C[C@@H](C=O)NC(=O)[C@H](CC(C)C)NC(=O)[C@H](CC(C)C)NC(=O)OCc1ccccc1 [MG132, benzyl (S)-4-methyl-1-((S)-4-methyl-1-((S)-4-methyl-1-oxopentan-2-ylamino)-1-oxopentan-2-ylamino)-1-oxopentan-2-ylcarbamate, reference compound] (Cbz-Leu-Leu-Leu-aldehyde)
% HDR (HBB locus): 0%
% NHEJ (HBB locus): 0%
% Total Gene Editing (HBB locus): 0%
viability at 0.5 µM (human CB CD34^+ HSCs [2]; [5]): 19%

CO[C@H]1C[C@@H]2CC[C@@H](C)[C@@](O)(O2)C(=O)C(=O)N2CCCC[C@H]2C(=O)O[C@H]([C@H](C)C[C@@H]2CC[C@@H](O)[C@H](OC)C2)CC(=O)[C@H](C)/C=C(\C)[C@@H](O)[C@@H](OC)C(=O)[C@H](C)C[C@H](C)/C=C/C=C/C=C/1C [Rapamycin (sirolimus), Rapamycin, reference compound]
% HDR (HBB locus): 7%
% NHEJ (HBB locus): 46%
% Total Gene Editing (HBB locus): 53%
viability at 0.005 µM (human CB CD34^+ HSCs [2]; [5]): 52%

Cn1nnc(-c2ccc3c(c2)[nH]c2nc(Cc4ccccc4)nc(N[C@H]4CC[C@H](N)CC4)c23)n1 [UM171, (1r,4r)-N1-(2-benzyl-7-(2-methyl-2H-tetrazol-5-yl)-9H-pyrimido[4,5-b]indol-4-yl)cyclohexane-1,4-diamine]
% HDR (HBB locus): 0%
% NHEJ (HBB locus): 79%
% Total Gene Editing (HBB locus): 79%
Fold-change in the number of live CD34^+ HSCs (96 hours) [3]: 1.5
Number of colony forming units, E (erythroid) [4]: 92 colony forming units per 1500 CD34^+ HSCs plated
Number of colony forming units, G [4]: 40 colony forming units per 1500 CD34^+ HSCs plated
Number of colony forming units, GEMM [4]: 20 colony forming units per 1500 CD34^+ HSCs plated
Number of colony forming units, GM [4]: 32 colony forming units per 1500 CD34^+ HSCs plated
Number of colony forming units, M [4]: 64 colony forming units per 1500 CD34^+ HSCs plated
Number of colony forming units, Total [4]: 228 colony forming units per 1500 CD34^+ HSCs plated

oxidized 1-palmitoyl-2-arachidonyl-sn-glycero-3-phosphorylcholine [OxPAPC, reference compound]
% HDR (HBB locus): 7%
% NHEJ (HBB locus): 71%
% Total Gene Editing (HBB locus): 78%
improvement in viability versus electroporated cells without pre-treatment (human CB CD34^+ HSCs [2]; CB CD34+, OxPAPC 30 μg/mL pre-treatment 18 hours): 20%
% Viability of CD34^+ stem cells (human CB CD34^+ HSCs [2]; CB CD34+, enhancer 18 hours before and 3 days after electroporation with D10A Cas9 RNP, HBB-8/HBB-15, Phx ssODN, UM171 35 nM, UM171/SR-1 35/40 nM, rapamycin 5 nM, OxPAPC 30 μg/mL, bafilomycin A1 1 μM, MG132 0.5 μM): 64%
